A short description of data set [1]: Microsomal stability (intrinsic clearance), mouse liver microsomes. The class given is in vitro ADME. Particulars: pH 7.4. The source says: (§1) Test Method Microsomal Stability (Intrinsic Clearance)
(§2) A microsomal stability assay is used to measure in vitro clearance (Clint). The assay involves measuring the rate of disappearance of a compound due to its intrinsic attitude to be metabolized (“intrinsic” meaning that the disappearance is not affected by other properties like permeability, binding etc. that play a role when quantifying in vivo clearance). The microsomal stability (intrinsic clearance, Clint) and thus metabolic stability is generally given as μl/min/mg protein. It can be visualized as the volume of solution that 1 mg of microsomes is able to clear of the compound in one minute.
(§3) A Tecan Genesis workstation (RSP 150/8) was used for to perform the microsomal incubations. Analysis was carried out using a Waters ACQUITY UPLC system coupled to an ABSciex API3000 mass spectrometer. Data analysis was performed using Assay Explorer (Symyx).
(§4) Chemicals • Potassium phosphate buffer: 0.05 M potassium phosphate buffer pH 7.4 containing 1 mM MgCl2 • NADPH (nicotinamide adenine dinucleotide phosphate): 22.5 mg NADPH-Na4 in 1.8 ml potassium phosphate buffer • Acetonitrile: 50 Vol % acetonitrile (1 volume acetonitrile, 1 volume water) • DMSO: 20 Vol % DMSO in water • Stock solution of 20 mg/ml human or mouse liver microsomes (protein)/ml in phosphate buffer
(§5) Stock solution of 10 mM compound in 100% DMSO
In general terms: Microsomes from liver hold many membrane-bound enzymes, among them those of drug oxidation.

A further data set concerns Tankyrases. Particulars: read-out: EC50 [M] TNKS cellular assay; DLD1 cells, 24 hours, Axin2 increase.
The nature of another data set: Solubility pH 7.4. Format: physicochemical. Particulars: pH 7.4, aqueous buffer.
A short description of data set [2]: Microsomal stability (intrinsic clearance), human liver microsomes. The class given is in vitro ADME. Particulars: pH 7.4.
Description: as §1, §2, §3, §4, §5

The target of another data set is T1, TNKS1 (Homo sapiens, UniProt O95271).
T1 construct: GST-tagged Tnks-1 (1023-1327 aa, prepared in-house); made in house
T1 sequence (O95271 1023-1327): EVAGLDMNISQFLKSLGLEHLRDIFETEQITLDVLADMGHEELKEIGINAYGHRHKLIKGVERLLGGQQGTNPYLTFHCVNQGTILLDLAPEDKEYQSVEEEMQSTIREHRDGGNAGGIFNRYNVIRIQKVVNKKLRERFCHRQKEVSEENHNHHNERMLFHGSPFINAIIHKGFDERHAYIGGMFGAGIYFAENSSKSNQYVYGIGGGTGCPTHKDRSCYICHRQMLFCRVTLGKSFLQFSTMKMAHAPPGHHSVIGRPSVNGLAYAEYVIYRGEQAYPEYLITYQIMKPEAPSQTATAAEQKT
The experiment in a line: TNKS1 activity ELISA (autoparsylation assay). The class given is biochemical. To be noted: GST-tagged Tnks-1 (1023-1327 aa). The essentials:
(§6)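 GST-tagged TNKS1 or TNKS2 captured on glutathione plates and allowed to auto-PARsylate with biotinylated NAD with or without compound. Biotin-ADP-ribosylated enzyme detected by streptavidin-HRP and luminescence; IC50 relative to inhibitor-free reaction.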
On the technique in general: An ELISA detects its analyte on a solid surface through an enzyme-linked reagent.

A further data set concerns the target T2, PARP-1 (Homo sapiens, UniProt P09874).
T2 construct: purchased Enzo Life Sciences GmbH, Lörrach, Germany
The experiment in a line: PARP-1 autoparsylation assay (HTRF). The class given is biochemical. Particulars: His-tagged Parp-1, autoparsylation HTRF. In a few lines:
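His-tagged enzyme auto-modifies itself using biotinylated NAD/NAD; product detected by TR-FRET between cryptate anti-His antibody and Xlent-streptavidin, as emission ratio.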

The target in a further data set is T3, TNKS2 (Homo sapiens, UniProt Q9H2K2).
T3 construct: GST-tagged Tnks-2 (873-1166 aa, prepared in-house); made in house
T3 sequence (Q9H2K2 873-1166): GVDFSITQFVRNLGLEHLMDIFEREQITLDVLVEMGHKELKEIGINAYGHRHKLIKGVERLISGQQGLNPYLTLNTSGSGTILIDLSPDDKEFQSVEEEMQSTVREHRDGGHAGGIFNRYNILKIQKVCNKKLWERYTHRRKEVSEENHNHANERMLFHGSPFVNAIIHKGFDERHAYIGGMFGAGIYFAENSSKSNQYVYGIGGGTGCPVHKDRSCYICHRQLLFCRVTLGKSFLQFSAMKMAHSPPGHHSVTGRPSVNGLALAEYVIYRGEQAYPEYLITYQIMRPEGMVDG
As to the kind of experiment: TNKS2 activity ELISA (autoparsylation assay). Particulars: GST-tagged Tnks-2 (873-1166 aa); read-out: IC50 [M] TNKS2 ELISA. The class given is biochemical. The essentials:
as §6

Molecules are shown by their SMILES. Values after ≈ are worked out from the molar mass of the structure shown. Structures can show the parent of a compound that is named as a salt. Some results are limits rather than exact numbers.

T2 sequence (P09874 whole entry): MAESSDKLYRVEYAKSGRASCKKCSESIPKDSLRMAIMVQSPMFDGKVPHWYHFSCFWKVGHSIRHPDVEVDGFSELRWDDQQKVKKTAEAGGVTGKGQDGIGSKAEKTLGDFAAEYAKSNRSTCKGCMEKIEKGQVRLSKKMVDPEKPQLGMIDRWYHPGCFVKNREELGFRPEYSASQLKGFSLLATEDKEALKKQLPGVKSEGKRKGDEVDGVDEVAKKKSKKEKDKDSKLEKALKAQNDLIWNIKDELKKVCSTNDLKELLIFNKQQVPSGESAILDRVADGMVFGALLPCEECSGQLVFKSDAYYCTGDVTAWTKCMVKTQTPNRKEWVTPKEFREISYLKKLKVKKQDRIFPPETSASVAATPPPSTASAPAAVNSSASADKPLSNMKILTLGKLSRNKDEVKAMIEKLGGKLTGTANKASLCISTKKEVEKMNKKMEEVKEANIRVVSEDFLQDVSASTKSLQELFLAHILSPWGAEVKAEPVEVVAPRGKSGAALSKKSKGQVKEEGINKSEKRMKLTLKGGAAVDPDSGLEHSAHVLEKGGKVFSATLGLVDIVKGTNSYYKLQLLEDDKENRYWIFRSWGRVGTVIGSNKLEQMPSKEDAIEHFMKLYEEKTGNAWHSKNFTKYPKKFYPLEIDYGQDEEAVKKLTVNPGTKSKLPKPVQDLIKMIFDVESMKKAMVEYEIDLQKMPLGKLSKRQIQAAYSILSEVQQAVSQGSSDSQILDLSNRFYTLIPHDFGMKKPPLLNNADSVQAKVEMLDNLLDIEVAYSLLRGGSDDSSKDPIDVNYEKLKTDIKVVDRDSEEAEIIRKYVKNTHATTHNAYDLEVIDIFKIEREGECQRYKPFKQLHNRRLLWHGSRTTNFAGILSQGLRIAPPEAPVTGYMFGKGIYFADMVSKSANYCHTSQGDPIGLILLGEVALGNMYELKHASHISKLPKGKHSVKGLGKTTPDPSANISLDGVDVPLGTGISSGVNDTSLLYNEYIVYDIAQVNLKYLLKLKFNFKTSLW

By microsomal CLint is commonly meant the capacity of the preparation to metabolise the compound, expressed as a volume cleared per time. Lower therefore signals slow turnover. As a reminder, the EC50 is the concentration at which the effect is half-maximal. A word on the solubility: it is the dissolved amount per volume that the medium holds. Read a high solubility as much dissolved substance. Take `COc1ccc(C(=O)C2CCN(C(=O)CCCc3nc4ccccc4c(=O)[nH]3)CC2)cc1` [Compound A1, 2-{4-[4-(4-methoxy-benzoyl)-piperidin-1-yl]-4-oxo-butyl}-3H-quinazolin-4-one, reference compound]: the microsomal CLint in data set [1] came to 120 µL/min/mg; in data set [2] it was 104 µL/min/mg. Further, the EC50 in the data set with Tankyrases was found to be 2e-09 M. Besides, the solubility in “Solubility pH 7.4” was determined as 18 µg/mL (≈ 41.5 µM).
Turning to `COc1ccc(C(=O)C2CCN(C(=O)CCCc3nc4c(F)cc(F)cc4c(=O)[nH]3)CC2)cc1` [Compound A5, 6,8-difluoro-2-{4-[4-(4-methoxy-benzoyl)-piperidin-1-yl]-4-oxo-butyl}-3H-quinazolin-4-one, reference compound], the microsomal CLint in data set [1] was 86 µL/min/mg; in data set [2], 58 µL/min/mg. Also, the EC50 in the data set on Tankyrases came out at 2.6e-09 M. In “Solubility pH 7.4”, this molecule had a solubility of 5 µg/mL (≈ 10.6 µM).
Broadly, the IC50 is the midpoint of a concentration-inhibition curve. Turning to `COc1ccc(C(=O)C2CCN(C(=O)CCCc3nc4c(cnn4C)c(=O)[nH]3)CC2)cc1` [Compound C41, 6-{4-[4-(4-Methoxy-benzoyl)-piperidin-1-yl]-4-oxo-butyl}-1-methyl-1,5-dihydro-pyrazolo[3,4-d]pyrimidin-4-one], the microsomal CLint in data set [1] stood at 36 µL/min/mg; in data set [2], 25 µL/min/mg. In addition, the values for the concentration for half-maximal inhibition (IC50) against TNKS1, against PARP-1 and on TNKS2 were 0.18 nM, 6300 nM and 1.3e-10 M, respectively. The EC50 with Tankyrases turned out to be 1.8e-09 M. This molecule returned a solubility in the data set “Solubility pH 7.4” of 55 µg/mL (≈ 126 µM).
On to `COc1ccc(C(=O)C2CCN(C(=O)CCCc3nc4c(cnn4C)c(=O)[nH]3)CC2)cc1F` [Compound C42, 6-{4-[4-(3-Fluoro-4-methoxy-benzoyl)-piperidin-1-yl]-4-oxo-butyl}-1-methyl-1,5-dihydro-pyrazolo[3,4-d]pyrimidin-4-one], for which the microsomal CLint in data set [1] stood at 51 µL/min/mg; in data set [2], 16 µL/min/mg. Moreover, the IC50 on TNKS1 is 0.12 nM; against PARP-1, 12000 nM; at TNKS2, below 1e-10 M. In addition, the EC50 in the data set on Tankyrases turned out to be 4.8e-09 M. Also, in the data set “Solubility pH 7.4”, the solubility was found to be 158 µg/mL (≈ 347 µM).
Regarding `COc1ccc(C(=O)C2CCN(C(=O)CCCc3nc4c(cnn4C)c(=O)[nH]3)CC2)cn1` [Compound C43, 6-{4-[4-(6-Methoxy-pyridine-3-carbonyl)-piperidin-1-yl]-4-oxo-butyl}-1-methyl-1,5-dihydro-pyrazolo[3,4-d]pyrimidin-4-one], the microsomal CLint stood at 36 µL/min/mg in data set [1] and 15 µL/min/mg in data set [2]. In addition, the IC50 against TNKS1 was found to be 0.52 nM; against PARP-1, 18000 nM; at TNKS2 it was 3.5e-10 M. For the same molecule, in the data set with Tankyrases, the EC50 was 4.3e-09 M. In the data set “Solubility pH 7.4”, the solubility came to 207 µg/mL (≈ 472 µM).
For the molecule `Cn1ncc2c(=O)[nH]c(CCCC(=O)N3CCC(c4cnc(N)c(-c5ncccn5)c4)CC3)nc21` [Compound C45, 6-[4-(6-Amino-5-pyrimidin-2-yl-3′,4′,5′,6′-tetrahydro-2′H-[3,4′]bipyridinyl-1′-yl)-4-oxo-butyl]-1-methyl-1,5-dihydro-pyrazolo[3,4-d]pyrimidin-4-one], the microsomal CLint in data set [1] was found to be 62 µL/min/mg; in data set [2] it was 25 µL/min/mg. Further, the values for the IC50 at TNKS1, against PARP-1 and at TNKS2 were 0.26 nM, 3800 nM and 1.9e-10 M, respectively. The EC50 with Tankyrases is 4.9e-10 M. In the data set “Solubility pH 7.4”, this molecule returned a solubility of 42 µg/mL (≈ 88.7 µM).
For `Cn1ncc2c(=O)[nH]c(CCCC(=O)N3CCC(C(=O)c4ccc(F)cc4)CC3)nc21` [Compound C48, 6-{4-[4-(4-Fluoro-benzoyl)-piperidin-1-yl]-4-oxo-butyl}-1-methyl-1,5-dihydro-pyrazolo[3,4-d]pyrimidin-4-one], the microsomal CLint in data set [1] turned out to be 59 µL/min/mg; in data set [2], 20 µL/min/mg. Further, the IC50 against TNKS1 was 0.45 nM; against PARP-1, 7300 nM; at TNKS2 it was 3.1e-10 M. Moreover, the EC50 in the data set with Tankyrases was determined as 4.4e-09 M. The molecule further gave a solubility in the data set “Solubility pH 7.4” of 206 µg/mL (≈ 484 µM).
Turning to `COc1ccc(C(=O)C2CCN(C(=O)CCCc3nc4c(c(=O)[nH]3)COCC4)CC2)cc1` [Compound C52, 2-{4-[4-(4-Methoxy-benzoyl)-piperidin-1-yl]-4-oxo-butyl}-3,5,7,8-tetrahydro-pyrano[4,3-d]pyrimidin-4-one], the microsomal CLint in data set [1] and in data set [2] was below 10 µL/min/mg throughout. For the same molecule, the IC50 against TNKS1 came out at 1.4 nM; against PARP-1, 1900 nM; at TNKS2 it was 4.8e-10 M. In the data set with Tankyrases, the EC50 was 4.6e-09 M. The solubility in “Solubility pH 7.4” is 868 µg/mL (≈ 1970 µM).
For `COc1ccc(C(=O)C2CCN(C(=O)CCCc3nn4cccc4c(=O)[nH]3)CC2)cn1` [Compound C137, 2-{4-[4-(6-Methoxy-pyridine-3-carbonyl)-piperidin-1-yl]-4-oxo-butyl}-3H-pyrrolo[2,1-f][1,2,4]triazin-4-one], the values for the microsomal CLint in data set [1] and in data set [2] were 78 µL/min/mg and 10 µL/min/mg, respectively. In addition, the IC50 amounted to 1.5 nM at TNKS1, 21000 nM on PARP-1 and 1e-09 M at TNKS2. In addition, the EC50 with Tankyrases is 1.9e-08 M. The molecule also returned a solubility in “Solubility pH 7.4” of 70 µg/mL (≈ 165 µM).
For the molecule `Cc1nc(CCCC(=O)N2CCC(C(=O)c3ccc(F)cc3)CC2)[nH]c(=O)c1C` [Compound C240, 2-{4-[4-(4-Fluoro-benzoyl)-piperidin-1-yl]-4-oxo-butyl}-5,6-dimethyl-3H-pyrimidin-4-one], the half-inhibitory concentration (IC50) on TNKS1 was 14 nM; against PARP-1 it was 19000 nM; at TNKS2, 5.3e-09 M. Further, the EC50 with Tankyrases was 5.8e-07 M.
Take `CCn1cc(C(=O)C2CCN(C(=O)CCCc3nc4c(ccn4C)c(=O)[nH]3)CC2)cn1` [Compound C243, 2-{4-[4-(1-Ethyl-1H-pyrazole-4-carbonyl)-piperidin-1-yl]-4-oxo-butyl}-7-methyl-3,7-dihydro-pyrrolo[2,3-d]pyrimidin-4-one]: the IC50 against TNKS1 stood at 0.47 nM; at PARP-1, 4200 nM; on TNKS2, 2.2e-10 M. The concentration for a half-maximal effect (EC50) in the data set with Tankyrases was found to be 3.4e-08 M.
Take `Cn1ncc2c(=O)[nH]c(CCCC(=O)N3CCC(C(=O)c4ccc(C(C)(F)F)cc4)CC3)nc21` [Compound C245, 6-(4-{4-[4-(1,1-Difluoro-ethyl)-benzoyl]-piperidin-1-yl}-4-oxo-butyl)-1-methyl-1,5-dihydro-pyrazolo[3,4-d]pyrimidin-4-one]: the IC50 on TNKS1 stood at 0.41 nM; on PARP-1, 5800 nM; on TNKS2 it was 1.7e-10 M. In addition, in the data set on Tankyrases, the EC50 came out at 4.8e-09 M.
The matching figures for `Cn1ncc2c(=O)[nH]c(CCCC(=O)N3CCC(C(=O)c4ccc(F)c(F)c4)CC3)nc21` [Compound C246, 6-{4-[4-(3,4-Difluoro-benzoyl)-piperidin-1-yl]-4-oxo-butyl}-1-methyl-1,5-dihydro-pyrazolo[3,4-d]pyrimidin-4-one]: 0.63 nM, 13000 nM, 3.2e-10 M and 2.5e-08 M.
The matching figures for `O=C(c1ccc(Cl)cc1)C1CCN(C(=O)CCCc2nc3c(c(=O)[nH]2)COCC3)CC1` [Compound C247, 2-{4-[4-(4-Chloro-benzoyl)-piperidin-1-yl]-4-oxo-butyl}-3,5,7,8-tetrahydro-pyrano[4,3-d]pyrimidin-4-one trifluoroacetate]: 3.3 nM, 3500 nM, 6.6e-10 M and 2.1e-08 M.
For `Cn1ccc2c(=O)[nH]c(CCCC(=O)N3CCC(C(=O)c4ccc(F)c(F)c4)CC3)nc21` [Compound C248, 2-{4-[4-(3,4-Difluoro-benzoyl)-piperidin-1-yl]-4-oxo-butyl}-7-methyl-3,7-dihydro-pyrrolo[2,3-d]pyrimidin-4-one], in that order: 0.7 nM, 2400 nM, 2.3e-10 M and 8.7e-09 M.
On to `Cn1ccc2c(=O)[nH]c(CCCC(=O)N3CCC(C(=O)c4ccc(C(C)(F)F)cc4)CC3)nc21` [Compound C249, 2-(4-{4-[4-(1,1-Difluoro-ethyl)-benzoyl]-piperidin-1-yl}-4-oxo-butyl)-7-methyl-3,7-dihydro-pyrrolo[2,3-d]pyrimidin-4-one], for which the IC50 at TNKS1 came to 0.42 nM; on PARP-1 it was 1100 nM; on TNKS2 it was 1.2e-10 M. Moreover, the EC50 with Tankyrases was found to be 1.8e-09 M.
With `COc1ccc(C(=O)C2CN(C(=O)CCCc3cn4cccc4c(=O)[nH]3)C2)cc1` [Compound D1, 3-{4-[3-(4-Methoxy-benzoyl)-azetidin-1-yl]-4-oxo-butyl}-2H-pyrrolo[1,2-a]pyrazin-1-one], the IC50 against TNKS1 was 120 nM; on PARP-1, 3100 nM; at TNKS2 it was 8.5e-08 M. Further, the EC50 in the data set on Tankyrases turned out to be 5.4e-07 M.

Values taken from patent US9809598B2 (Merck Patent GmbH, priority 2014, dated 2017).
